The results in this text go back to US12398121B2 (Nuvation Bio Inc., priority 2018, dated 2025).

For this assay, the target named is T1, ER Alpha-LBD (GST) (Homo sapiens, UniProt P03372).
T1 construct: purchased Thermo Fisher
T1 sequence (P03372 311-547 limits assumed): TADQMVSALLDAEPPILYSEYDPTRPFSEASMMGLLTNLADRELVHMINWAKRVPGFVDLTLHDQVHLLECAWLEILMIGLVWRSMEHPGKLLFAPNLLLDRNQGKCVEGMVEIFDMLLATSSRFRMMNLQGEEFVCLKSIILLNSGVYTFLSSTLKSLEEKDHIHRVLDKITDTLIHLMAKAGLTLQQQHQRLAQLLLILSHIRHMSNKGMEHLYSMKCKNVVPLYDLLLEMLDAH
The assay is described as follows: ER binding assay (LanthaScreen TR-FRET ER Alpha Competitive Binding Assay). Conditions: Fluormone ES2 Green tracer, read-out: ERα Ki. The method, then:
Cells were plated at varying density in the respective growth medium in 96 well plates. 24 hr later, cells were treated, in triplicate or quadruplicate, with test articles prepared in a range of concentrations by series dilution of DMSO stock solutions in growth medium and incubated for three to seven days. The number of viable 22RV1 and HT-29 cells was measured using CellTiter Glo assay (CTG, Promega, Madison, WI) after three days of treatment. The other types of cancer cells were re-treated at three or four days and the number of viable cells was measured using CTG assay after a total treatment time of six or seven days. Cell viability data were plotted using GraphPad Prism (GraphPad Software, Inc., San Diego, CA). In addition, a nonlinear regression model with a sigmoidal dose response and variable slope within GraphPad Prism was used to calculate the IC50 value of individual test articles. Additional cell proliferation assays: Other cancer cell lines are tested in a cell proliferation assay. For example, SK-OV-3 or OVCAR3 ovarian cancer cells are tested. Cells are cultured in medium recommended by the supplier (e.g., ATCC or JCRB Cell Bank), at 37° C. in a 5% CO2 environment. For the proliferation assay, cells are plated in the growth medium in 96 well plates. Seeding density is adjusted according to the cell type. […] The number of viable cells is measured using CellTiter Glo assay (CTG, Promega, Madison, WI) or similar. […] ER binding assay: ERα binding was assessed by the LanthaScreen® TR-FRET ER Alpha Competitive Binding Assay at Thermo Fisher. […] Competitive binding to the ER Alpha-LBD (GST) was detected by a test compound's ability to displace a fluorescent ligand (Fluormone™ ES2 Green tracer) from the ER Alpha-LBD (GST), which results in a loss of FRET signal between the Tb-anti-GST antibody and the tracer. […] After an incubation period at room temperature, the TR-FRET ratio of 520:495 emissions were calculated and was used to determine the IC50 from a dose response curve of the compound. […]
For orientation: Time-resolved FRET reads energy transfer from a long-lived donor to a nearby acceptor.
The Ki is the dissociation constant of the complex between target and ligand, obtained from inhibition or displacement. For the compound `CN(CCCCCC(=O)N1CCN(C(=O)c2cc(Cc3n[nH]c(=O)c4ccccc34)ccc2F)CC1)CCOc1ccc(C(=O)c2c(-c3ccc(O)cc3)sc3cc(O)ccc23)cc1` [Compound 2.4, 4-(4-fluoro-3-(4-(6-((2-(4-(6-hydroxy-2-(4-hydroxyphenyl)benzo[b]thiophene-3-carbonyl)phenoxy)ethyl)(methyl)amino)hexanoyl)piperazine-1-carbonyl)benzyl)phthalazin-1(2H)-one], the inhibition constant (Ki) was found to be 5 nM.
For `O=C(c1ccc(OCCN2CCN(C(=O)c3cc(Cc4n[nH]c(=O)c5ccccc45)ccc3F)CC2)cc1)c1c(-c2ccc(O)cc2)sc2cc(O)ccc12` [Compound 2.13, 4-(4-fluoro-3-(4-(2-(4-(6-hydroxy-2-(4-hydroxyphenyl)benzo[b]thiophene-3-carbonyl)phenoxy)ethyl)piperazine-1-carbonyl)benzyl)phthalazin-1(2H)-one] the value was 3.3 nM; for `CCC(=C(c1ccc(O)cc1)c1ccc(OCCN2CCN(C(=O)c3cc(Cc4n[nH]c(=O)c5ccccc45)ccc3F)CC2)cc1)c1ccccc1` [Compound 2.14, 4-(4-fluoro-3-(4-(2-(4-(1-(4-hydroxyphenyl)-2-phenylbut-1-enyl)phenoxy)ethyl)piperazine-1-carbonyl)benzyl)pthalazin-1(2H)-one], 3.5 nM.
